Results from patent US12178840B2, “Method and compositions comprising a CT20 peptide” (UNIVERSITY OF CENTRAL FLORIDA RESEARCH FOUNDATION, INC., priority 2014, dated 2024).
Residues, ends and D or L forms follow the SMILES beside them.

Columns and labels:
CCTβ in MDA-MB-231 cells = target: T1, CCTβ in MDA-MB-231 cells (Homo sapiens, UniProt P78371); assay: In-cell pull down (CT20p-biotin in HBPE-nanoparticles), blot for CCTβ; format: cell-based; settings: whole cell lysates
T1 construct: delivered to viable MDA-MB-231 and MCF-10A cells, followed by gentle cell lysis; endogenous in cells; host or cells: MDA-MB-231
Method: (§1) Pull down experiments: Lysate pull-downs were performed with 200 ug cell lysate, obtained by douncing as described above. Lysates were pre-cleared with streptavidin-agarose beads (Pierce), then incubated with […] of CT20-Biotin or biotin for 3 hours at room temperature, followed by overnight incubation at 4° C. with streptavidin-agarose beads. Beads were washed thoroughly with wash buffer (25 mM Tris, 150 mM NaCl, 0.1% NP40, pH7.4), then heated in 4× loading buffer (Invitrogen) for analysis by SDS-PAGE. Mass spectrometric analysis was performed by Moffit Cancer Center (Tampa, FL). Mass spectrometry results presented are of proteins with at least two unique peptides identified, and that were not recovered with biotin-only pull down. In-cell pull downs were performed by first delivering CT20p-Biotin encapsulated in nanoparticles to viable cells at a dose of 75 μg/mL for varying lengths of time. Following treatment, cells were collected and lysed by douncing. 200 ug of cell lysate were then incubated with streptavidin-agarose beads overnight at 4° C., and pull-down was completed as described above. […]
(§2) Because pull downs performed in cell lysates may emphasize non-specific protein interactions, we designed an in-cell pull down assay to better reflect interactions in the intracellular environment. […] Indeed, no pull down was detected with DiI-loaded nanoparticles.

CCTβ in MCF-10A cells = target: T2, CCTβ in MCF-10A cells (Homo sapiens, UniProt P78371); assay: as above; format: cell-based; settings: whole cell lysates
T2 construct: delivered to viable MDA-MB-231 and MCF-10A cells, followed by gentle cell lysis; endogenous in cells; host or cells: MCF-10A (untransfected)
Method: as §1, §2

CCTβ = target: T3, CCTβ (Homo sapiens, UniProt P78371); assay: Lysate pull-down with CT20p-biotin, immunoblot for CCTβ; format: binding; settings: TNBC cell lines and MCF-10A lysates; more so in the MSL subtypes
T3 construct: probing lysates from the TNBC cell lines and MCF-10A cells with CT20p-biotin; endogenous in cells; host or cells: lysates of MDA-MB-231, MDA-MB-436, MDA-MB-468, BT-549 and MCF-10A cells
Method: Immunoblotting: Cell lysates were obtained by mechanical douncing in fractionation buffer consisting of 210 mM sucrose, 70 mM mannitol, 10 mM HEPES, 1 mM EDTA, pH 7.4. Lysates were centrifuged at 1,000×g for 10 minutes at 4° C., and the supernatants were subjected to SDS-PAGE, followed by transfer to Immobilon-FL membranes (Millipore). Blots were probed with primary antibodies against CCTβ (Millipore), […]. (Abcam), CCTε (Abcam), or p38 (Santa Cruz). Detection was performed by incubation with IRDye 800CW or IRDye 680CW secondary antibodies (LI-COR), followed by imaging on the Oddysey detection system (LI-COR). Quantificition of Western blots was performed with Image Studio software (LI-COR). Proteins of interest were quantified relative to p38 loading controls, then normalized to the level in MCF-10A cells.
Pull down experiments: Lysate pull-downs were performed with 200 ug cell lysate, obtained by douncing as described above. Lysates were pre-cleared with streptavidin-agarose beads (Pierce), then incubated with […] of CT20-Biotin or biotin for 3 hours at room temperature, followed by overnight incubation at 4° C. with streptavidin-agarose beads. Beads were washed thoroughly with wash buffer (25 mM Tris, 150 mM NaCl, 0.1% NP40, pH7.4), then heated in 4× loading buffer (Invitrogen) for analysis by SDS-PAGE. Mass spectrometric analysis was performed by Moffit Cancer Center (Tampa, FL). […]

[1] = test system: cells isolated from primary breast tumors; assay: Lethality in cells isolated from primary breast tumors; format: cell-based, human; settings: CT20 peptide in HBPE-NPs
Text: 40× magnification. CCTβ was detected in invasive breast cancer.
The lethality of CT20 was also examined in cells isolated from primary breast tumors and paired normal tissue. […] To this end, the levels of CCTβ were examined in a pilot tissue array of breast cancer tissue cores by immunohistochemistry (IHC) and detected CCTβ in invasive breast cancer (FIG. 14B).

[2] = test system: MDA-MB-231 subcutaneous tumors; assay: Tumor growth in mice bearing subcutaneous MDA-MB-231 tumors, nanoparticle treatment; format: in vivo
Text: Referring to FIG. 2A, the graph summarizes the results with FOL-NPs that were empty, contained Doxorubicin (DOX), or CT20, and are compared to COOH-NPs with CT20. Referring to FIG. 2B, representative ultrasound data is shown from mice treated with PBS or FOL-CT20-NPs. Arrows indicate treatment times. *p<0.05.
To test the ability of CT20 to inhibit tumor growth, HBPE-NPs were modified with folate (FOL) to target the folate receptor (FR) (Boohaker, R. J., et al. (2012) Mol. Pharm. 7, 2080-2093; Lee, M. W., et al. (2014) Cell Death Dis. 5). FR targeting enabled concentration of the HBPE-NPs in murine tumors during systemic delivery. FIG. 2 is a representative animal experiment in which MDA-MB-231 cells were used to form subcutaneous tumors. Mice (n=5) were treated with two subcutaneous injections of nanoparticles (2 mg/kg/dose) over a five week period. […] Referring to FIG. 2B, representative ultrasound data is shown from mice treated with PBS or FOL-CT20-NPs. Arrows indicate treatment times. *p<0.05.

Compound: CC[C@H](C)[C@H](NC(=O)[C@@H](NC(=O)[C@H](CC(C)C)NC(=O)[C@H](CO)NC(=O)[C@H](C)NC(=O)[C@@H](NC(=O)[C@H](CC(C)C)NC(=O)[C@@H](NC(=O)CNC(=O)[C@H](C)NC(=O)[C@@H](NC(=O)[C@H](Cc1ccccc1)NC(=O)[C@@H](NC(=O)[C@@H](NC(=O)[C@@H](NC(C)=O)C(C)C)[C@@H](C)O)[C@@H](C)CC)C(C)C)C(C)C)[C@@H](C)O)[C@@H](C)O)C(=O)N[C@@H](Cc1c[nH]c2ccccc12)C(=O)N[C@@H](CCCCN)C(=O)N[C@@H](CCCCN)C(=O)N[C@@H](CCSC)C(=O)NCC(N)=O [CT20] (Ac-VTIFVAGVLTASLTIWKKMG-NH2)
- Effect on total CCTβ protein levels (CCTβ in MDA-MB-231 cells): does not affect
- Effect on total CCTβ protein levels (CCTβ in MCF-10A cells): does not affect
- Interaction with CCTβ in cell lysates (CCTβ): able to interact with CCTβ in all cell lines
- Lethality [1]: killed the tumor cells
- Effectiveness compared with Doxorubicin ([2]; CT20 delivered in HBPE-NPs): as effective, if not more, than drugs such as Doxorubicin
- Inhibition of tumor growth ([2]; two subcutaneous injections of nanoparticles (2 mg/kg/dose) over five weeks): caused tumor regression
